Measurements reported in ChEMBL document CHEMBL4715821, “Discovery of 4-ethoxy-7H-pyrrolo[2,3-d]pyrimidin-2-amines as potent, selective and orally bioavailable LRRK2 inhibitors” (Bioorg Med Chem Lett, 2018).

Legend:
[1] = target: Serine/threonine-protein kinase Sgk2 (Homo sapiens) (UniProt Q9HBY8); test: Inhibition of wild-type human partial length SGK2 (L54 to C427 residues) expressed in mammalian expression system assessed as residual activity at 1 uM by Kinomescan method relative to control
[2] = target: Discoidin domain-containing receptor 2 (Homo sapiens) (UniProt Q16832); test: Inhibition of wild-type human partial length DDR2 (V555 to E855 residues) expressed in mammalian expression system assessed as residual activity at 1 uM by Kinomescan method relative to control
[3] = target: Tyrosine-protein kinase TXK (Homo sapiens) (UniProt P42681); test: Inhibition of wild-type human partial length TXK (L238 to W527 residues) expressed in bacterial expression system assessed as residual activity at 1 uM by Kinomescan method relative to control
[4] = target: Cyclin-dependent kinase 2/cyclin E1 (Homo sapiens) (UniProt P24864+P24941); test: Inhibition of wild-type human full length CDK2 (M1 to L298 residues)/Cyclin E expressed in bacterial expression system assessed as residual activity at 1 uM by Kinomescan method relative to control
[5] = target: Non-receptor tyrosine-protein kinase TNK1 (Homo sapiens) (UniProt Q13470); test: Inhibition of wild-type human full length TNK1 (M1 to P661 residues) expressed in bacterial expression system assessed as residual activity at 1 uM by Kinomescan method relative to control
[6] = target: Serine/threonine-protein kinase pim-3 (Homo sapiens) (UniProt Q86V86); test: Inhibition of wild-type human partial length PIM3 (G16 to A317 residues) expressed in bacterial expression system assessed as residual activity at 1 uM by Kinomescan method relative to control
[7] = target: PAS domain-containing serine/threonine-protein kinase (Homo sapiens) (UniProt Q96RG2); test: Inhibition of wild-type human partial length PASK (E942 to G1265 residues) expressed in mammalian expression system assessed as residual activity at 1 uM by Kinomescan method relative to control
Chain of PAS domain-containing serine/threonine-protein kinase (Homo sapiens) (Q96RG2 whole entry, the tested form may be a part): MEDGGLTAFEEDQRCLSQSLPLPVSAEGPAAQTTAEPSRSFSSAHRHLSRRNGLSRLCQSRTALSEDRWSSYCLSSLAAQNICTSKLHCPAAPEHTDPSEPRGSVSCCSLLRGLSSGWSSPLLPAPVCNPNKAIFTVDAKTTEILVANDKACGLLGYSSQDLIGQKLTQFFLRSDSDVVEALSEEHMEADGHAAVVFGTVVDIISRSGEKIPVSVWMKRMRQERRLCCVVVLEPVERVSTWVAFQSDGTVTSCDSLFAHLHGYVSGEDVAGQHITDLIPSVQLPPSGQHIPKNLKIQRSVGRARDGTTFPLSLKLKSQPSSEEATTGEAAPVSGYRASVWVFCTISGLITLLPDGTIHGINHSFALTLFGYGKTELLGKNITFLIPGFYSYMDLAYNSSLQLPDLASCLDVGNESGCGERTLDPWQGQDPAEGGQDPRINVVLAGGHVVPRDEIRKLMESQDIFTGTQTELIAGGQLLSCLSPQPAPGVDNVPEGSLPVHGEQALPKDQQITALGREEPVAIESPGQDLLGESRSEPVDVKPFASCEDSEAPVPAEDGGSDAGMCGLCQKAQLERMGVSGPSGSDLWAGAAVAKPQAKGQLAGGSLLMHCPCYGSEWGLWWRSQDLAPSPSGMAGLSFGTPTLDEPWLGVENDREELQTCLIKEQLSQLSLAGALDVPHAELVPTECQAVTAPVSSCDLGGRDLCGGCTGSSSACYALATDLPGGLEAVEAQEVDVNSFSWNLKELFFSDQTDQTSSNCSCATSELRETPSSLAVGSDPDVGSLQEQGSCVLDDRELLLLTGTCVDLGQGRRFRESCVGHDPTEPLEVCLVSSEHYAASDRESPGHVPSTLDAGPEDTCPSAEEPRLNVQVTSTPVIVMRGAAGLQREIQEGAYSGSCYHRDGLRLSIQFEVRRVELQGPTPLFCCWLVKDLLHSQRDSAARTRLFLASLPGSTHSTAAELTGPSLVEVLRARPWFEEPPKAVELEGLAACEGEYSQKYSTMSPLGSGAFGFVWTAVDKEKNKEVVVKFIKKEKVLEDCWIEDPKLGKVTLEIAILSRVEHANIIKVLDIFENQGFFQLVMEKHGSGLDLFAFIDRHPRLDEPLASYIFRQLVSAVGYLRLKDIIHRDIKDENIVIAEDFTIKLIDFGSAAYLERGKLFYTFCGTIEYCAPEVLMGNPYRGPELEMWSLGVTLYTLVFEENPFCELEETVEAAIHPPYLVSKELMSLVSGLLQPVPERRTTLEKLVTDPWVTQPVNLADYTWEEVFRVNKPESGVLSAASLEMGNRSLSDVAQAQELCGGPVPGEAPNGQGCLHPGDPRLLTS

[8] = target: Leucine-rich repeat serine/threonine-protein kinase 2 (Homo sapiens, UniProt Q5S007); test: Inhibition of LRRK2 in human AHE cells assessed as reduction in Ser935 phosphorylation; type: cell-based, Lymphoblastoid cell
Cytochrome P450 3A4 = Cytochrome P450 3A4 (Homo sapiens, UniProt P08684); test: Inhibition of human CYP3A4; type: ADME
[9] = target: Myosin light chain kinase 2, skeletal/cardiac muscle (Homo sapiens) (UniProt Q9H1R3); test: Inhibition of MLCK2 (unknown origin) assessed as residual activity at 1 uM by Kinomescan method relative to control
[10] = target: Serine/threonine-protein kinase LATS2 (Homo sapiens) (UniProt Q9NRM7); test: Inhibition of wild-type human partial length LATS2 (Q641 to V1088 residues) expressed in mammalian expression system assessed as residual activity at 1 uM by Kinomescan method relative to control
Chain of Serine/threonine-protein kinase LATS2 (Homo sapiens) (Q9NRM7 whole entry, the tested form may be a part): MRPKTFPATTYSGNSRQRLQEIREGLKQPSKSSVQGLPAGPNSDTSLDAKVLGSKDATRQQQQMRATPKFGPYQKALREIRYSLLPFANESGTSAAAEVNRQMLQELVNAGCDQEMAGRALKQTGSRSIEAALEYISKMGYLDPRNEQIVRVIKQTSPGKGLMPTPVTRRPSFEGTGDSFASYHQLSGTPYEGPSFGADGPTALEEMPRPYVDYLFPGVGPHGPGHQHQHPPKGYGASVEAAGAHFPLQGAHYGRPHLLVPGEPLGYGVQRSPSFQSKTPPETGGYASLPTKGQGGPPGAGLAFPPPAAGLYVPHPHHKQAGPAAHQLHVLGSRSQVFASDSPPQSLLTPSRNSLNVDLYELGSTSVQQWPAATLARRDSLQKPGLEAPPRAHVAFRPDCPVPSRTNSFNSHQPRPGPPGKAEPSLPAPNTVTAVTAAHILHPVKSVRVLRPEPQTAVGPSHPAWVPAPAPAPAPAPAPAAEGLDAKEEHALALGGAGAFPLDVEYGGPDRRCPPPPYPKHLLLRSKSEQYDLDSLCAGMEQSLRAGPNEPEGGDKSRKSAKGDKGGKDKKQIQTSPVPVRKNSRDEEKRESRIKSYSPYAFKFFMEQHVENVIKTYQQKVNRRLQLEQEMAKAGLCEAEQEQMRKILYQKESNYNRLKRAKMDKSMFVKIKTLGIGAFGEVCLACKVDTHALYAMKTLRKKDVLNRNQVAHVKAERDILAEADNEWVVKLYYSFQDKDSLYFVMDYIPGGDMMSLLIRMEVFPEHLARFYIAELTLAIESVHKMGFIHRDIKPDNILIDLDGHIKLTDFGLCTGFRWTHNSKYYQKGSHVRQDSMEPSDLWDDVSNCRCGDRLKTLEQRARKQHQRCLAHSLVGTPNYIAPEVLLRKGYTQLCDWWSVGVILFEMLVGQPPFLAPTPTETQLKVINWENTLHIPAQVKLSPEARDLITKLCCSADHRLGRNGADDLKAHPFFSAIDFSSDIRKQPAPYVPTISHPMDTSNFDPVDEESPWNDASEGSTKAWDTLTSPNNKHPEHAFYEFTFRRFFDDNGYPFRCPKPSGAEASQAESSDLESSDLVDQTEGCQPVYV

[11] = target: Serine/threonine-protein kinase pim-2 (Homo sapiens) (UniProt Q9P1W9); test: Inhibition of wild-type human partial length PIM2 (M1 to E291 residues) expressed in bacterial expression system assessed as residual activity at 1 uM by Kinomescan method relative to control
[12] = target: MAP/microtubule affinity-regulating kinase 3 (Homo sapiens) (UniProt P27448); test: Inhibition of wild-type human full length MARK3 (M1 to L729 residues) expressed in bacterial expression system assessed as residual activity at 1 uM by Kinomescan method relative to control
[13] = target: cGMP-dependent protein kinase 1 (Homo sapiens) (UniProt Q13976); test: Inhibition of PKG1beta (unknown origin) assessed as residual activity at 1 uM by Kinomescan method relative to control
Chain of cGMP-dependent protein kinase 1 (Homo sapiens) (Q13976 whole entry, the tested form may be a part): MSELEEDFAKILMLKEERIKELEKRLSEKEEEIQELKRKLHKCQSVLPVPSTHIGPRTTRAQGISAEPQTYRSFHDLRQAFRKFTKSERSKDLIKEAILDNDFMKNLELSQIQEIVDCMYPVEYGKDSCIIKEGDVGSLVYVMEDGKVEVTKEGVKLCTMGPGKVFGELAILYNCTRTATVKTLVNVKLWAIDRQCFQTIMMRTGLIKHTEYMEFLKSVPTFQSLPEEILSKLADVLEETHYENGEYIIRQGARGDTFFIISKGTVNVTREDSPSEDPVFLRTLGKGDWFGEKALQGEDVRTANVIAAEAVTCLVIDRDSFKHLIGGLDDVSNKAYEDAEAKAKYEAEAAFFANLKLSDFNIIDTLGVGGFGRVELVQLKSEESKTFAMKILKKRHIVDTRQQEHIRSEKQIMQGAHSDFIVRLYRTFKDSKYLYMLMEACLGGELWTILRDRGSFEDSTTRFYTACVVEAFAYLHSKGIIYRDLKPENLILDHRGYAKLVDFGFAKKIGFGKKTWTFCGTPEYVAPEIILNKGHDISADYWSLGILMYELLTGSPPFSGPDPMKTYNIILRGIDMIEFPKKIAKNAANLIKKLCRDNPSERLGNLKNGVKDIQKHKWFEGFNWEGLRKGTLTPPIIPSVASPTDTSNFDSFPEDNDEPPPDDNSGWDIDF

[14] = target: Dual specificity tyrosine-phosphorylation-regulated kinase 1B (Homo sapiens) (UniProt Q9Y463); test: Inhibition of wild-type human full length DYRK1B (M1 to S629 residues) expressed in bacterial expression system assessed as residual activity at 1 uM by Kinomescan method relative to control
[15] = target: Mitogen-activated protein kinase kinase kinase 5 (Homo sapiens) (UniProt Q99683); test: Inhibition of wild-type human partial length ASK1 (E648 to S964 residues) expressed in bacterial expression system assessed as residual activity at 1 uM by Kinomescan method relative to control
Chain of Mitogen-activated protein kinase kinase kinase 5 (Homo sapiens) (Q99683 whole entry, the tested form may be a part): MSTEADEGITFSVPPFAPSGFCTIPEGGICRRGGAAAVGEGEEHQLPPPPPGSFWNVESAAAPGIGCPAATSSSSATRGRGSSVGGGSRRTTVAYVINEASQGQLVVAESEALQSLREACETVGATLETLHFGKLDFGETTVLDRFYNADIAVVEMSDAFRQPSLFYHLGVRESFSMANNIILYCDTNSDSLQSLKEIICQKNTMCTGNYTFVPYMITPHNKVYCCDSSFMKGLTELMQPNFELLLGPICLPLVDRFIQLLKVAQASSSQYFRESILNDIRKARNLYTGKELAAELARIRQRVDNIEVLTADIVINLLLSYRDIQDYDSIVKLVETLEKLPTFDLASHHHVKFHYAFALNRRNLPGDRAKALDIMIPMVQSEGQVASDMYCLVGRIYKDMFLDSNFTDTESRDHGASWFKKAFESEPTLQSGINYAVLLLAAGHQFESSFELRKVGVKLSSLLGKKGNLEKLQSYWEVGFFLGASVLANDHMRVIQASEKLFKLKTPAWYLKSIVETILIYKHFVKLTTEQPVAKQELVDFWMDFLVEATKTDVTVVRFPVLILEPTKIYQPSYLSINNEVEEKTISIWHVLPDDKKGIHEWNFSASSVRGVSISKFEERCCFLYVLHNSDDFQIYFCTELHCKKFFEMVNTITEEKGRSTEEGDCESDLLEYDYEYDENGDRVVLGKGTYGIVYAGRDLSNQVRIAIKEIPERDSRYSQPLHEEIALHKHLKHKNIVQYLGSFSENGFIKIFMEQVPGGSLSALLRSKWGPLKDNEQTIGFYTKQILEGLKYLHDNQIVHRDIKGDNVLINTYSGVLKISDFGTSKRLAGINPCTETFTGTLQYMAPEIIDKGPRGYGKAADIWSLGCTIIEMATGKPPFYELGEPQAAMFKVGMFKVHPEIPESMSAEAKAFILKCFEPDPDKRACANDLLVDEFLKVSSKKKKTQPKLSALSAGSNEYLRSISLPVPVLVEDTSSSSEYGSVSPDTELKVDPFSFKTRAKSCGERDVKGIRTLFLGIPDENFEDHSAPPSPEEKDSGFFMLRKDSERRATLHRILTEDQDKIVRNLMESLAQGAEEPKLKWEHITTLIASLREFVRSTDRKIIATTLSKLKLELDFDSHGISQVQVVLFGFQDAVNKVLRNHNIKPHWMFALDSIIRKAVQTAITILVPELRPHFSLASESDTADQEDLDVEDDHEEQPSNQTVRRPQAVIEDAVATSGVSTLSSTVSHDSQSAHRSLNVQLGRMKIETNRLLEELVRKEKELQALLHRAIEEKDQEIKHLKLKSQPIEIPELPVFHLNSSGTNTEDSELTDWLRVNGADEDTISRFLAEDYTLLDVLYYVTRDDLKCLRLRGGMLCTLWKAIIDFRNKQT

[16] = target: Tyrosine-protein kinase ZAP-70 (Homo sapiens) (UniProt P43403); test: Inhibition of wild-type human partial length ZAP70 (D20 to G299 residues) expressed in mammalian expression system assessed as residual activity at 1 uM by Kinomescan method relative to control
[17] = target: Bone morphogenetic protein receptor type-2 (Homo sapiens) (UniProt Q13873); test: Inhibition of wild-type human partial length BMPR2 (R179 to Q526 residues) expressed in mammalian expression system assessed as residual activity at 1 uM by Kinomescan method relative to control
[18] = target: Protein kinase C iota type (Homo sapiens) (UniProt P41743); test: Inhibition of PKCiota (unknown origin) assessed as residual activity at 1 uM by Kinomescan method relative to control
[19] = target: Ribosomal protein S6 kinase alpha-1 (Homo sapiens) (UniProt Q15418); test: Inhibition of wild-type human partial length N-terminal RSK1 kinase domain 1 (M1 to E388 residues) expressed in bacterial expression system assessed as residual activity at 1 uM by Kinomescan method relative to control
[20] = target: Tyrosine-protein kinase receptor TYRO3 (Homo sapiens) (UniProt Q06418); test: Inhibition of wild-type human partial length TYRO3 (S497 to T814 residues) expressed in bacterial expression system assessed as residual activity at 1 uM by Kinomescan method relative to control
[21] = target: Serine/threonine-protein kinase OSR1 (Homo sapiens) (UniProt O95747); test: Inhibition of wild-type human full length OSR1 (M1 to S527 residues) expressed in mammalian expression system assessed as residual activity at 1 uM by Kinomescan method relative to control
[22] = target: Protein-tyrosine kinase 6 (Homo sapiens) (UniProt Q13882); test: Inhibition of wild-type human partial length BRK (L166 to T451 residues) expressed in bacterial expression system assessed as residual activity at 1 uM by Kinomescan method relative to control
[23] = target: Hepatocyte growth factor receptor (Homo sapiens) (UniProt P08581); test: Inhibition of wild-type human partial length c-MET (D1010 to S1367 residues) expressed in bacterial expression system assessed as residual activity at 1 uM by Kinomescan method relative to control
[24] = target: Tyrosine-protein kinase ITK/TSK (Homo sapiens) (UniProt Q08881); test: Inhibition of wild-type human partial length ITK (R335 to L620 residues) expressed in bacterial expression system assessed as residual activity at 1 uM by Kinomescan method relative to control
Chain of Tyrosine-protein kinase ITK/TSK (Homo sapiens) (Q08881 whole entry, the tested form may be a part): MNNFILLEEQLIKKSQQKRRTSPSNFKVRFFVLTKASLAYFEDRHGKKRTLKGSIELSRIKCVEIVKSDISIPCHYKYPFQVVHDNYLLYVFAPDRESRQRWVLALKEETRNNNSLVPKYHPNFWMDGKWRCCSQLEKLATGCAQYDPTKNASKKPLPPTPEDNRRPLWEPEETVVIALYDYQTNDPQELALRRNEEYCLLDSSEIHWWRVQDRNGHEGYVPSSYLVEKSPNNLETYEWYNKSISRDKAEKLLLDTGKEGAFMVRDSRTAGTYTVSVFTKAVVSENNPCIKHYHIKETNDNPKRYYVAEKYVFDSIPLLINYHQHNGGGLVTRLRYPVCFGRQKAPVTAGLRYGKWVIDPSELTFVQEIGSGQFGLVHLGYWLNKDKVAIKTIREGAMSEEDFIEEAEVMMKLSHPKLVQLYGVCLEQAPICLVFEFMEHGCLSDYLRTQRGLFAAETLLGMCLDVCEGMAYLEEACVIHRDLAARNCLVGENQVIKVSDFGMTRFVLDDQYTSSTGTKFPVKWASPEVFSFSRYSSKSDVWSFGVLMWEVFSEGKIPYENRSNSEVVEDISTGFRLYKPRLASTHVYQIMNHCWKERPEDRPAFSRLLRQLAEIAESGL

[25] = target: cAMP-dependent protein kinase catalytic subunit beta (Homo sapiens) (UniProt P22694); test: Inhibition of wild-type human full length PKAC-beta (M1 to F351 residues) expressed in bacterial expression system assessed as residual activity at 1 uM by Kinomescan method relative to control

**Q.** With `CCOc1nc(Nc2ccc(C(=O)N3CCOCC3)cc2OC)nc2[nH]ccc12` as the compound, how does the Activity [1] read?
**A.** 88.7%

**Q.** And the Activity [2]?
**A.** 95.7%

**Q.** And the Activity [3]?
**A.** 88%

**Q.** And the Activity [4]?
**A.** 92.1%

**Q.** And the Activity [5]?
**A.** 46.5%

**Q.** And the Activity [6]?
**A.** 99.9%

**Q.** What about the Activity [7] of the same compound?
**A.** 98.4%

**Q.** What about the IC50 [8] of the same compound?
**A.** 0.0316 µM

**Q.** And the IC50 (Cytochrome P450 3A4)?
**A.** 158 µM

**Q.** What about the Activity [9] of the same compound?
**A.** 95.6%

**Q.** What about the Activity [10] of the same compound?
**A.** 96.3%

**Q.** And the Activity [11]?
**A.** 94.7%

**Q.** What about the Activity [12] of the same compound?
**A.** 92.4%

**Q.** And the Activity [13]?
**A.** 90.3%

**Q.** And the Activity [14]?
**A.** 66.9%

**Q.** And the Activity [15]?
**A.** 92.2%

**Q.** What about the Activity [16] of the same compound?
**A.** 124%

**Q.** And the Activity [17]?
**A.** 72.2%

**Q.** What about the Activity [18] of the same compound?
**A.** 96.5%

**Q.** What about the Activity [19] of the same compound?
**A.** 87.1%

**Q.** What about the Activity [20] of the same compound?
**A.** 109%

**Q.** And the Activity [21]?
**A.** 101%

**Q.** And the Activity [22]?
**A.** 45.6%

**Q.** What about the Activity [23] of the same compound?
**A.** 104%

**Q.** What about the Activity [24] of the same compound?
**A.** 99.8%

**Q.** And the Activity [25]?
**A.** 93.3%
